# What was measured:
# Assay in all cases: NCI60 five-dose screen
# [1] = system: HL-60 (TB); type: cell-based; conditions: Homo sapiens, leukemia
# [2] = system: K-562; type: cell-based; conditions: Homo sapiens, K562, K-562, leukemia
# [3] = system: RPMI-8226; type: cell-based; conditions: Homo sapiens, RPMI-8226, leukemia
# [4] = system: A549/ATCC; type: cell-based; conditions: Homo sapiens, NSC lung cancer
# [5] = system: EKVX; type: cell-based; conditions: Homo sapiens, NSC lung cancer
# [6] = system: HOP-62; type: cell-based; conditions: Homo sapiens, HOP-62, NSC lung cancer
# [7] = system: NCI-H23; type: cell-based; conditions: Homo sapiens, NCI-H23, NSC lung cancer
# [8] = system: NCI-H460; type: cell-based; conditions: Homo sapiens, NCI-H460, NSC lung cancer
# [9] = system: NCI-H522; type: cell-based; conditions: Homo sapiens, NCI-H522, NSC lung cancer
# [10] = system: COLO 205; type: cell-based, human; conditions: Homo sapiens
# [11] = system: HCT-15; type: cell-based; conditions: Homo sapiens, HCT-15, colon cancer
# [12] = system: SF-295; type: cell-based; conditions: Homo sapiens, SF-295, CNS cancer
# [13] = system: SNB-19; type: cell-based; conditions: Homo sapiens, SNB-19, CNS cancer
# [14] = system: SNB-75; type: cell-based; conditions: Homo sapiens, SNB-75, CNS cancer
# [15] = system: U251; type: cell-based; conditions: Homo sapiens, U-251, U251, CNS cancer
# [16] = system: LOX IMVI; type: cell-based; conditions: Homo sapiens, melanoma
# [17] = system: SK-MEL-2; type: cell-based; conditions: Homo sapiens, SK-MEL-2, melanoma
# [18] = system: SK-MEL-28; type: cell-based; conditions: Homo sapiens, SK-MEL-28, melanoma
# [19] = system: SK-MEL-5; type: cell-based, human; conditions: Homo sapiens
# [20] = system: UACC-257; type: cell-based; conditions: Homo sapiens, UACC-257, melanoma
# [21] = system: UACC-62; type: cell-based; conditions: Homo sapiens, UACC-62, melanoma
# [22] = system: IGROV1; type: cell-based; conditions: Homo sapiens, IGROV-1; IGROV1, ovarian cancer
# [23] = system: OVCAR-3; type: cell-based; conditions: Homo sapiens, OVCAR-3, ovarian cancer
# [24] = system: OVCAR-4; type: cell-based; conditions: Homo sapiens, OVCAR-4, ovarian cancer
# [25] = system: OVCAR-8; type: cell-based; conditions: Homo sapiens, OVCAR-8, ovarian cancer
# [26] = system: NCI/ADR-RES; type: cell-based, human; conditions: Homo sapiens, ovarian cancer
# [27] = system: SK-OV-3; type: cell-based; conditions: Homo sapiens, SK-OV-3, ovarian cancer
# [28] = system: ACHN; type: cell-based; conditions: Homo sapiens, renal cancer
# [29] = system: CAKI-1; type: cell-based; conditions: Homo sapiens, CAKI-1, renal cancer
# [30] = system: SN12C; type: cell-based; conditions: Homo sapiens, renal cancer
# [31] = system: TK-10; type: cell-based; conditions: Homo sapiens, TK-10, renal cancer
# [32] = system: PC-3; type: cell-based; conditions: Homo sapiens, PC-3, prostate cancer
# [33] = system: DU-145; type: cell-based; conditions: Homo sapiens, DU-145, prostate cancer
# [34] = system: MCF7; type: cell-based; conditions: Homo sapiens, MCF7, breast cancer
# [35] = system: MDA-MB-231/ATCC; type: cell-based; conditions: Homo sapiens, breast cancer
# [36] = system: BT-549; type: cell-based; conditions: Homo sapiens, BT-549, breast cancer
# [37] = read-out: LC50 (the source's name)
smiles,measurement,setting,value
"O=C(N/N=C/c1[nH]ccc1Cl)c1[nH]c2ccc(Br)cc2c1-c1ccccc1 [Derivative 3g, (E)-5-Bromo-N′-((3-chloro-1H-pyrrol-2-yl)methylene)-3-phenyl-1H-indole-2-carbohydrazide]",GI50,[1],0.891 µM
same,CC50,[1]; [37],> 100 µM
same,GI50,[2],0.413 µM
same,CC50,[2]; [37],> 100 µM
same,GI50,[3],0.855 µM
same,CC50,[3]; [37],> 100 µM
same,GI50,[4],0.838 µM
same,CC50,[4]; [37],53.4 µM
same,GI50,[5],2.66 µM
same,CC50,[5]; [37],38.1 µM
same,GI50,[6],3.8 µM
same,CC50,[6]; [37],60.8 µM
same,GI50,[7],0.884 µM
same,CC50,[7]; [37],34.4 µM
same,GI50,[8],0.448 µM
same,CC50,[8]; [37],34.3 µM
same,GI50,[9],0.233 µM
same,CC50,[9]; [37],20.4 µM
same,CC50,"[10]; COLO 205, COLO 205, colon cancer, read-out: LC50 (the source's name)",40.3 µM
same,GI50,"[10]; COLO 205, colon cancer",1.66 µM
same,GI50,[11],0.465 µM
same,CC50,[11]; [37],34.3 µM
same,GI50,[12],0.501 µM
same,CC50,[12]; [37],26 µM
same,GI50,[13],1.06 µM
same,CC50,[13]; [37],35.4 µM
same,GI50,[14],0.325 µM
same,CC50,[14]; [37],38.6 µM
same,GI50,[15],0.63 µM
same,CC50,[15]; [37],37.7 µM
same,GI50,[16],0.555 µM
same,CC50,[16]; [37],29.4 µM
same,GI50,[17],1.07 µM
same,CC50,[17]; [37],38.7 µM
same,GI50,[18],0.909 µM
same,CC50,[18]; [37],47.5 µM
same,CC50,"[19]; SK-MEL-5, SK-MEL-5, melanoma, read-out: LC50 (the source's name)",63 µM
same,GI50,"[19]; SK-MEL-5, melanoma",0.427 µM
same,GI50,[20],0.738 µM
same,CC50,[20]; [37],52 µM
same,GI50,[21],0.411 µM
same,CC50,[21]; [37],37 µM
same,GI50,[22],0.734 µM
same,GI50,[23],0.409 µM
same,CC50,[23]; [37],34.9 µM
same,GI50,[24],3.09 µM
same,CC50,[24]; [37],43.5 µM
same,GI50,[25],0.481 µM
same,CC50,[25]; [37],27.7 µM
same,GI50,[26],0.219 µM
same,CC50,[26]; [37],10.5 µM
same,GI50,[27],11.6 µM
same,CC50,[27]; [37],64.1 µM
same,GI50,[28],0.627 µM
same,CC50,[28]; [37],34.5 µM
same,GI50,[29],0.445 µM
same,CC50,[29]; [37],36.9 µM
same,GI50,[30],1.34 µM
same,CC50,[30]; [37],29.2 µM
same,GI50,[31],7.16 µM
same,CC50,[31]; [37],49.5 µM
same,GI50,[32],0.826 µM
same,CC50,[32]; [37],63.6 µM
same,GI50,[33],1.58 µM
same,CC50,[33]; [37],33.1 µM
same,GI50,[34],0.376 µM
same,CC50,[34]; [37],42.2 µM
same,GI50,[35],2.07 µM
same,CC50,[35]; [37],28.2 µM
same,GI50,[36],3.56 µM
same,CC50,[36]; [37],46.8 µM
